Laboratory results taken from ChEMBL document CHEMBL4321885, “Biomimetic Macrocyclic Inhibitors of Human Cathepsin D: Structure-Activity Relationship and Binding Mode Analysis” (J Med Chem, 2020).
Converted amounts (≈) assume the structure as drawn. The source made the active and inactive calls. The rule behind the calls is not given here.

What was measured:
Thermolysin = biological target: T1, Thermolysin (Geobacillus stearothermophilus, UniProt P43133); test: Stability of the compound assessed as Geobacillus stearothermophilus thermolysin-mediated compound hydrolysis at 25 ug measured after 18 hrs by HPLC analysis; type: ADME
T1 sequence (P43133 whole entry): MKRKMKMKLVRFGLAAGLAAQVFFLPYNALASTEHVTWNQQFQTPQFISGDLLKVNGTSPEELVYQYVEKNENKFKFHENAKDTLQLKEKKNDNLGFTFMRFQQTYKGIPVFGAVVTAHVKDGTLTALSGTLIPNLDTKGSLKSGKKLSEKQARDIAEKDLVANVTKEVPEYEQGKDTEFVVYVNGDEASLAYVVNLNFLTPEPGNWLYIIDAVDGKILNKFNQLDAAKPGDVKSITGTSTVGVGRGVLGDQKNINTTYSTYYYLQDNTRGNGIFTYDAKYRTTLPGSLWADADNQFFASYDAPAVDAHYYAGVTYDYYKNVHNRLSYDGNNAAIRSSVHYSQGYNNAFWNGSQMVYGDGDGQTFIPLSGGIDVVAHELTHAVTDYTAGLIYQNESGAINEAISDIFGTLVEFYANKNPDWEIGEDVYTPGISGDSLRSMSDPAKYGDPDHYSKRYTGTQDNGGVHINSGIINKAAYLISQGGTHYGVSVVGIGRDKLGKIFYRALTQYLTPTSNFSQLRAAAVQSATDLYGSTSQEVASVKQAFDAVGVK

[1] = Stability of the compound assessed as bovine chymotrypsin-mediated compound hydrolysis at 25 ug measured after 18 hrs by HPLC analysis; type: ADME, Bos taurus; details: cattle
[2] = biological target: Protease (Human immunodeficiency virus 1) (UniProt Q9YQ12); test: Inhibition of HIV1 protease at 50 nM using Abz-Tyr-Ile-Nle-Nph-Gln-Arg as substrate preincubated for 10 mins followed by substrate addition and measured by FRET assay
Chain of Protease (Human immunodeficiency virus 1) (Q9YQ12 as listed by the source): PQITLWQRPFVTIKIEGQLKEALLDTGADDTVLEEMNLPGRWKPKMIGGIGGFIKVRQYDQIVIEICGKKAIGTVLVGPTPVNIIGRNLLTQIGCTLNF

Renin (Homo sapiens) [3] = biological target: T2, Renin (Homo sapiens) (UniProt P00797); test: Inhibition of recombinant human N-terminal FLAG-tagged renin (67 to 406 residues) expressed in HEK cells at 5 uM using Arg-Glu(EDANS)-Ile-His-Pro-Phe-His-Leu-Val-Ile-His-Thr-Lys(Dabcyl)-Arg as substrate preincubated for 10 mins followed by substrate addition and measured by FRET assay
T2 sequence (whole entry): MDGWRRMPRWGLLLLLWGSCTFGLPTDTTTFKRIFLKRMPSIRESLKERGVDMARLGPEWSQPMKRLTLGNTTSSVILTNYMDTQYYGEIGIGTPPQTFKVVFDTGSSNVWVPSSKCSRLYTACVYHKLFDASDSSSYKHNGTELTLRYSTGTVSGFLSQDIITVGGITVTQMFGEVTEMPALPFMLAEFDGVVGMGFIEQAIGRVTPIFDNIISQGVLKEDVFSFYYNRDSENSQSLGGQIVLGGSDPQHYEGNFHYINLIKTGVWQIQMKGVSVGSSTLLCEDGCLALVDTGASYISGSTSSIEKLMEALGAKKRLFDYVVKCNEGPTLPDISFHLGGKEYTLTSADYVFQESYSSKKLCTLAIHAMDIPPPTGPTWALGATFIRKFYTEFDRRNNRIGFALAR

NHDF = test: Cytotoxicity against NHDF cells assessed as reduction in cell viability up to 100 uM measured after 72 hrs by Celltiter-glo assay; type: cell-based; details: human
Bos taurus [4] = species on record: Bos taurus; test: Inhibition of bovine trypsin at 1 uM using Z-Phe-Arg-AMC as substrate preincubated for 10 mins followed by substrate addition and measured after 20 mins by fluorescence assay
[5] = biological target: Saccharopepsin (Saccharomyces cerevisiae S288c) (UniProt P07267); test: Inhibition of Baker's yeast proteinase A at 50 nM using Abz-Lys-Pro-Ala-Glu-Phe-Nph-Ala-Leu as substrate preincubated for 10 mins followed by substrate addition and measured by FRET assay
Chain of Saccharopepsin (Saccharomyces cerevisiae S288c) (P07267 whole entry): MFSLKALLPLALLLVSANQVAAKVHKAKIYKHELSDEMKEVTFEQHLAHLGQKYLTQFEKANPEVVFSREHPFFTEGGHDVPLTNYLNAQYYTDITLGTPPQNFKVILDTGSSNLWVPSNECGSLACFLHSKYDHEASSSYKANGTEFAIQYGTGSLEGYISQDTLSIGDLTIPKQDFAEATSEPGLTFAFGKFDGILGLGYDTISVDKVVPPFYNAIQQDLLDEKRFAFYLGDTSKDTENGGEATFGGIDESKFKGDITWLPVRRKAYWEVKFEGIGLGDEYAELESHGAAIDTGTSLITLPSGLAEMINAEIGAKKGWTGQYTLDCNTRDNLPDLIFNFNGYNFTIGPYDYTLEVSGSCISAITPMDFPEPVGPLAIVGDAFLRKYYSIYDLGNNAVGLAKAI

[6] = biological target: Beta-secretase 1 (Homo sapiens) (UniProt P56817); test: Inhibition of recombinant human C-terminal 10His-tagged BACE1 expressed in mouse NS0 cells at 50 nM using Mca-Ser-Glu-Val-Asn-Leu-Asp-Ala-Glu-Phe-Arg-Lys(Dnp)-Arg-Arg as substrate preincubated for 10 mins followed by substrate addition and measured by FRET assay
Chain of Beta-secretase 1 (Homo sapiens) (P56817 whole entry): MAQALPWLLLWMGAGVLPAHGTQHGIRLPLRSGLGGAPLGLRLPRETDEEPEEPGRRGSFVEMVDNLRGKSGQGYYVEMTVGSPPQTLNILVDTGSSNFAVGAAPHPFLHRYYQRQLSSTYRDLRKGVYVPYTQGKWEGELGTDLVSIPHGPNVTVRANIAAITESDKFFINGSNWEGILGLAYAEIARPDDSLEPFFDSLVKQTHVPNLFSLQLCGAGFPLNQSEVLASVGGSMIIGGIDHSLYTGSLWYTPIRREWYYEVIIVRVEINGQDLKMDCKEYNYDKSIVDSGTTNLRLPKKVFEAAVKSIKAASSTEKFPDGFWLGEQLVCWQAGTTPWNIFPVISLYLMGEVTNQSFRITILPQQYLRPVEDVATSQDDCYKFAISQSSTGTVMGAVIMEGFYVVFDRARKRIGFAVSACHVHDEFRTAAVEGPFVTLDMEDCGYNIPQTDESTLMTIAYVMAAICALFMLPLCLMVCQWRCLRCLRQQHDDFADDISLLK

PBMC = test: Cytotoxicity against human PBMC cells assessed as reduction in cell viability up to 100 uM measured after 72 hrs by Celltiter-glo assay; type: cell-based
Cathepsin D = Cathepsin D (Homo sapiens, UniProt P07339); test: Inhibition of human placenta CatD using Abz-Lys-Pro-Ala-Glu-Phe-Nph-Ala-Leu as substrate preincubated for 10 mins followed by substrate addition and measured by FRET assay
Chain of Cathepsin D (P07339 65-162 limits assumed): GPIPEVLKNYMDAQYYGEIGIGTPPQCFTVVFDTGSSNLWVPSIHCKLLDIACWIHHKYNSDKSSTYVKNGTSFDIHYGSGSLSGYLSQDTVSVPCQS
Chain of Cathepsin D (P07339 169-412 limits assumed): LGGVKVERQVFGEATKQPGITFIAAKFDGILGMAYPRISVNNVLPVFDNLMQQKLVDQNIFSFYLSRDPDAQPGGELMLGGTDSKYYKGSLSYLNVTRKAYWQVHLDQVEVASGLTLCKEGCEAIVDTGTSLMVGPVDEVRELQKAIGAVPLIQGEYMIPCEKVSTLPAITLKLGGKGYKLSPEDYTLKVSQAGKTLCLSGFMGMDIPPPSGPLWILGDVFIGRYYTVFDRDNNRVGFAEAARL

[7] = biological target: T3, Thermolysin (Geobacillus stearothermophilus) (UniProt P43133); test: Inhibition of Geobacillus stearothermophilus thermolysin at 1 uM using Abz-Ala-Gly-Leu-Ala-nitro-benzylamide as substrate preincubated for 10 mins followed by substrate addition and measured after 20 mins by fluorescence assay
T3 sequence (whole entry): T1 sequence (P43133 whole entry)

Papain = biological target: T4, Papain (Carica papaya, UniProt P00784); test: Stability of the compound assessed as papaya papain-mediated compound hydrolysis at 25 ug measured after 18 hrs by HPLC analysis; type: ADME
T4 sequence (P00784 whole entry): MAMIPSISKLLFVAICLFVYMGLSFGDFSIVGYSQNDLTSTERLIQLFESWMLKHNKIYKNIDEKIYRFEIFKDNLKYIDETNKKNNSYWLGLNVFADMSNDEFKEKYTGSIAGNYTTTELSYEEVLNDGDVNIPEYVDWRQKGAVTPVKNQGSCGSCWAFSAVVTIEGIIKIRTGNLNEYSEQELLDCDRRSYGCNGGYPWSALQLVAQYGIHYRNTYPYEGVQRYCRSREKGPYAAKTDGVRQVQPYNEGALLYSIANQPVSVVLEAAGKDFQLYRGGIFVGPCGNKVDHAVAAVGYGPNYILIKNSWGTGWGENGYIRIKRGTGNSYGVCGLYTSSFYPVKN

[8] = Apparent permeability in human Caco2 cells at 5 uM measured after 5 hrs by LC-MS analysis; type: ADME, cell-based; details: Caco-2
Bos taurus [9] = species on record: Bos taurus; test: Inhibition of bovine chymotrypsin at 1 uM using Z-Phe-Arg-AMC as substrate preincubated for 10 mins followed by substrate addition and measured after 20 mins by fluorescence assay
[10] = Stability of the compound assessed as bovine trypsin-mediated compound hydrolysis at 25 ug measured after 18 hrs by HPLC analysis; type: ADME, Bos taurus; details: cattle
Renin (Homo sapiens) [11] = biological target: T2, Renin (Homo sapiens); test: Inhibition of recombinant human N-terminal FLAG-tagged renin (67 to 406 residues) expressed in HEK cells at 50 nM using Arg-Glu(EDANS)-Ile-His-Pro-Phe-His-Leu-Val-Ile-His-Thr-Lys(Dabcyl)-Arg as substrate preincubated for 10 mins followed by substrate addition and measured by FRET assay
Ixodes ricinus = test: Inhibition of Ixodes ricinus CatD expressed in Escherichia coli BL21(DE3) at 50 nM using Abz-Lys-Pro-Ala-Glu-Phe-Nph-Ala-Leu as substrate preincubated for 10 mins followed by substrate addition and measured by FRET assay
Papain (Carica papaya) = biological target: T5, Papain (Carica papaya) (UniProt P00784); test: Inhibition of papaya papain at 1 uM using Z-Phe-Arg-AMC as substrate preincubated for 10 mins followed by substrate addition and measured after 20 mins by fluorescence assay
T5 sequence (whole entry): T4 sequence (P00784 whole entry)

[12] = biological target: Beta-secretase 1 (Homo sapiens) (UniProt P56817); test: Inhibition of recombinant human C-terminal 10His-tagged BACE1 expressed in mouse NS0 cells at 5 uM using Mca-Ser-Glu-Val-Asn-Leu-Asp-Ala-Glu-Phe-Arg-Lys(Dnp)-Arg-Arg as substrate preincubated for 10 mins followed by substrate addition and measured by FRET assay
[13] = biological target: Protease (Human immunodeficiency virus 1) (UniProt Q9YQ12); test: Inhibition of HIV1 protease at 5 uM using Abz-Tyr-Ile-Nle-Nph-Gln-Arg as substrate preincubated for 10 mins followed by substrate addition and measured by FRET assay
Sus scrofa = species on record: Sus scrofa; test: Inhibition of porcine pepsin at 50 nM using Abz-Lys-Pro-Ala-Glu-Phe-Nph-Ala-Leu as substrate preincubated for 10 mins followed by substrate addition and measured by FRET assay
[14] = Solubility of the compound in pH 7.4 phosphate buffered saline by HPLC-MS analysis; type: physicochemical

Compound | Stability (Thermolysin) | Stability [1] | inhibition [2] | inhibition (Renin (Homo sapiens) [3]) | Activity (NHDF) | inhibition (Bos taurus [4]) | inhibition [5] | inhibition [6] | Activity (PBMC) | IC50 (Cathepsin D) [nM] | inhibition [7] | Stability (Papain) | Papp at 5 h, 5 µM [8] [×10⁻⁶ cm/s] | inhibition (Bos taurus [9]) | Stability [10] | inhibition (Renin (Homo sapiens) [11]) | inhibition (Ixodes ricinus) | inhibition (Papain (Carica papaya)) | inhibition [12] | inhibition [13] | other results
CC(C)[C@@H]1NC(=O)C[C@H](O)[C@H](Cc2ccccc2)NC(=O)OCCCCCCCCCCCNC1=O | Stable | Stable | inactive | Active | Non-Toxic | inactive | Active | inactive | Non-Toxic | 2.5 | inactive | Stable | 1.68 | inactive | Stable | inactive | Active | inactive | Active | Active | 
O=C1C[C@H](O)[C@H](Cc2ccccc2)NC(=O)CCCCCCCCCCCNC(=O)[C@H](c2ccccc2)N1 |  |  | inactive | Active |  |  | Active | inactive |  | 27 |  |  |  |  |  | inactive | Active |  | Active | Active | inhibition (Sus scrofa): Active
O=C1C[C@H](O)[C@H](Cc2ccccc2)NC(=O)CCCCCCCCCCCNC(=O)[C@H](Cc2cccnc2)N1 | Stable | Stable | inactive | Active | Non-Toxic | inactive | Active | inactive | Non-Toxic | 1.1 | inactive | Stable |  | inactive | Stable | inactive | Active | inactive | Active | Active | solubility [14]: 342 µg/mL (≈ 637 µM)
CC(C)CC(=O)N[C@H](C(=O)N[C@H](C(=O)N[C@@H](CC(C)C)[C@@H](O)CC(=O)N[C@@H](C)C(=O)N[C@@H](CC(C)C)[C@@H](O)CC(=O)O)C(C)C)C(C)C [PEPSTATIN] |  |  |  |  | Non-Toxic |  |  |  | Non-Toxic |  |  |  | 0.11 |  |  |  |  |  |  |  | solubility [14]: 197 µg/mL (≈ 287 µM)
CC[C@@H](C)[C@@H]1NC(=O)C[C@H](O)[C@H](Cc2ccccc2)NC(=O)CCCCCCCCCCCNC1=O |  |  | inactive | Active |  |  | Active | inactive |  | 3.8 |  |  |  |  |  | inactive | Active |  | Active | Active | inhibition (Sus scrofa): Active
